According to patent US20220096516A1, “OLIGONUCLEOTIDE MOLECULE AND APPLICATION THEREOF IN TUMOR THERAPY” (Ractigen Therapeutics, priority 2019, published 2022):
d = 2'-deoxy (DNA); r = 2'-OH (RNA)

Columns and labels:
Hep3B cells = assay: Cell viability by CCK-8 method, Hep3B; format: cell-based, human; conditions: 10 nM, 72 h, FIG. 6B
Description: (§1) 8 LHPP promoter-targeting saRNAs were individually transfected into liver cancer cells at 10 nM for 72 h. In FIG. 6A, the expression level of LHPP mRNA was analyzed by RT-qPCR. In FIG. 6B, cell viability in the saRNA treatment group was evaluated by the CCK-8 method and recorded as a percentage relative to the viability of cells in a control (Mock) treatment group.
(§2) The cell viability was detected by the following CCK-8 method: the cCells were plated into a 96-well plate at 3-5×10^3 cells/well, cultured overnight, and transfected with the oligonucleotide duplexes. After 72 hour of transfection, 10 uL of CCK-8 solution (Dojindo Molecular Technologies) was added into each well. After 1 hour of incubation at 37° C., a microplate reader was used to measure absorbances at 450 nm. […]

Li-7 cells = assay: Cell viability by CCK-8 method, Li-7; format: cell-based, human; conditions: Li-7, 10 nM, 72 h, FIG. 6B
Description: as §1, §2

[1] = test system: prostatic cancer cell line PC3; assay: Cell viability by CCK-8 method, PC3; format: cell-based, human; conditions: PC3, 10 nM, 72 h, FIG. 7B
Description: as §1, with “into” for “into liver”, “7A,” for “6A,”, “7B,” for “6B,”
The cell viability was detected by the following CCK-8 method: the cCells were plated into a 96-well plate at 3-5×10^3 cells/well, cultured overnight, and transfected with the oligonucleotide duplexes. After 72 hour of transfection, 10 uL of CCK-8 solution (Dojindo Molecular Technologies) was added into each well. After 1 hour of incubation at 37° C., a microplate reader was used to measure absorbances at 450 nm.
In order to further evaluate the effect of LHPP saRNAs in inducing the mRNA expression of the LHPP gene and inhibiting the proliferation of cancer cells, eight screened saRNAs (RAG7-132, RAG7-133, RAG7-139, RAG7-177, RAG7-178, RAG7-694, RAG7-707 and RAG7-892) each were transfected into the liver cancer cell lines Huh7 (Medical Cell Resource Center, Tohoku University, Japan), HepG2 (ATCC), Hep3B (ATCC), Li-7 (Medical Cell Resource Center, Tohoku University, Japan) and SK-HEP-1 (ATCC), a lung cancer cell line A549 (ATCC), a bladder cancer cell line T24 (ATCC), a prostatic cancer cell line PC3 (ATCC), and a glioma cell line U87MG (ATCC). The mRNA expression and cell viability of the transfected cells were measured.

HepG2 cells = assay: saRNA in combination with chemical drugs, CCK-8 viability and combination index (Compusyn), HepG2; format: cell-based, human
Description: The saRNAs were transfected into cancer cells at different concentrations in combination with a panel of chemical drugs. In FIG. 8A, cell viability in the saRNA treatment group was evaluated by the CCK-8 method and recorded as a percentage relative to the viability of cells in a control (Mock) treatment group. In FIG. 8B, Compusyn© version 1.0 software was used to draw a combination index graphs; and to calculate combination index values as shown in FIG. 8C.
The compounds used in the study included: Sorafenib (Sora) (SELLECK, S1040), Lenvatinib (Lenv) (SELLECK, S1164), Regorafenib (Rego) (SELLECK, S1178), and Cabozantinib (Cabo) (SELLECK, S1119). Cells were transfected with each candidate saRNAs at varying concentration gradients for 24 hours. Thereafter, the aforementioned compounds were added to the transfected cells at a concentration of 5 μM and the cells were incubated with the compounds for 48 hours. Cell viability was measured using the CCK-8 method. Compusyn© version 1.0 software (ComboSyn, Inc. Paramus, N.J., USA) was used to analyze the combination index (CI) of drugs, wherein CI<1 represented a synergistic effect, CI=1 represented an additive effect, and CI>1 represented an antagonistic effect.

HepG2 transplanted tumor = HepG2 transplanted tumor growth in nude mice; set-up: species or system BALB/c nude mice; conditions: HepG2 xenograft, day 13; saRNA (in vivo-jetPEI) 1 mg/kg intratumor days 1, 4, 7, 10; regorafenib 3 mg/kg intragastric daily day 1-12; vehicle 118%
Description: To prepare the saRNA formulation, the in vivo-jetPEI (201-10G, Polyplus-transfection, France) was adopted as an saRNA delivery system. The preparation process is briefly described as follows. An saRNA was first diluted in 10% glucose solution to obtain a solution A. According to the instructions of the manufacturer, a required amount of in vivo-jetPEI was diluted in 10% glucose solution to obtain a solution B. Equal volumes of the solution A and the solution B were mixed (nitrogen-to-phosphorus ratio: 8; final concentration of glucose: 5%). After mixing, the mixture was let to stand at room temperature for 15 minutes for later use.
HepG2 cells in the logarithmic growth phase were obtained and counted, and then the cell suspension was regulated to 5×10^7 cells/mL and subcutaneously inoculated into the right armpit of BALB/c nude mice at a volume of 0.1 mL per mouse. […] Starting from the initial administration, the long diameter and the short diameter of each tumor were measured with a vernier caliper every two days. The tumor volume was calculated according to the formula V=(l×w^2)/2, wherein 1 represents the longest diameter of the tumor and w represents the diameter parallel to the surface of the tumor and perpendicular to the long diameter. A tumor growth curve and size and morphology of the tumor after anatomy were recorded during the administration.

Substance: RAG7-133: saRNA duplex; sense GCUCUUUGUCCGCUGAUCUTT (SEQ ID NO: 1), antisense AGAUCAGCGGACAAAGAGCTT (SEQ ID NO: 165) (sugars from the 5' end r19 d2, backbone not given here)
- cell proliferation (cell viability, CCK-8) (Hep3B cells): inhibited cell proliferation
- cell proliferation (cell viability, CCK-8) (Li-7 cells): inhibited cell proliferation
- cell proliferation (cell viability, CCK-8) [1]: inhibited cell proliferation
- combination index (CI) (HepG2 cells; high dose (25 nM to 100 nM) saRNA with Regorafenib 5 μM): < 0.3
- combination index (CI) (HepG2 cells; saRNA with Cabozantinib 5 μM): < 1
- combination index (CI) (HepG2 cells; saRNA with Lenvatinib 5 μM): > 1
- combination index (CI) (HepG2 cells; saRNA with Sorafenib 5 μM): < 1
- tumor volume increase compared with that at the beginning of treatment (HepG2 transplanted tumor): 34%
